According to PMC11024357 (Frontiers in Pharmacology, 2024):
Like-named read-outs stand apart in the source and are kept apart here. Each block holds one compound with its values, some of them ahead of it.

How the values were obtained:
[1] = Tacrolimus blood pharmacokinetics without and with omeprazole 20 mg or famotidine 20 mg in kidney transplant patients (CMIA, non-compartmental analysis); format: in vivo, human; settings: for Effect of single 20 mg co-administration on tacrolimus pharmacokinetic parameters: kidney transplant patients, day 2 vs day 1; for the mean C0/D ratio: pre-dose concentration / daily dose; for C0h, Q1: first quartile; for C0h, Q2: median; for C0h, Q3: third quartile; for concentration at 2 h / concentration at 6 h / AUC(0-t) / Cmax / AUC: human, whole blood, oral; for concentration at 2 h: read-out: C2; for concentration at 6 h: read-out: C6; for AUC(0-t): read-out: AUC0-6; for AUC: read-out: AUC2-6
Description: The study, randomized, non-blinded, comprised 24 stabilized adult patients between 1–12 months after kidney transplantation (NCT05061303), who received a kidney from a deceased donor. Inclusion criteria were time since kidney transplantation (1–12 months after kidney transplantation) and standard immunosuppressive regimen (tacrolimus, mycophenolate mofetil, prednisone/methylprednisolone/deflazacort). In this group, 2 individuals withdrew their informed consent and were excluded from study. Each randomized patient was admitted to the Department of Nephrology, Transplantology and Internal Diseases of Poznan University of Medical Sciences for 2 days (48 h). The study used the simple randomization method. One of the authors of the study (no the principal researcher) generated a randomized sequence for assigning patients to groups. The random component (computer-generated random numbers) was used in the sequence generation process. Figure 1 presented CONSORT flow chart. No participant changed the group during the study. Standard laboratory tests (creatinine, estimated glomerular filtration rate (eGFR), complete blood count, proteinuria, erythrocyturia) were performed during the first 2 days of participation in the study. In addition, the glomerular filtration rate (GFR) was calculated for each patient using The Chronic Kidney Disease Epidemiology Collaboration (CKD-EPI) creatinine equation to estimate GFR. […] Patients received tacrolimus once daily in the form of tacrolimus monohydrate prolonged-release tablets (Envarsus®, Chiesi Farmaceutici), registration numbers: EU/1/14/935/00, EU/1/14/935/004, EU/1/14/935/006, EU/1/14/935/007 or in the form of tacrolimus monohydrate prolonged-release hard capsules (Advagraf®, Astellas Pharma Europe), registration numbers: EU/1/07/387/001, EU/1/07/387/003, EU/1/07/387/011, EU/1/07/387/007. […] All patients before the start of the study achieved tacrolimus steady state. […] The results were used to obtain the values of pharmacokinetic parameters and statistical evaluation. No study-related adverse events were reported by patients, physicians, medical staff, or others during the study.
In order to establish the tacrolimus metabolism rate in the patients, the blood concentration normalized by the dose (C/D ratio) was calculated. The C0/D ratio can be calculated by dividing the tacrolimus pre-dose concentration (C0) by the corresponding daily tacrolimus dose (D). […] The fast metabolizers group included patients with a C/D ratio of <1.05 ng/mL*1/mg, whereas if the aforementioned ratio was ≥1.55 ng/mL*1/mg, the participants were described as slow metabolizers ([Tholking et al., 2014]).
Tacrolimus concentrations were determined using CMIA, by means of Alinity i analyser ([Mei et al., 2018]). Samples were stored frozen (−10°C or below) for no longer than 6 months. Each sample was thoroughly mixed prior to determining concentration, and 200 μL of each sample was pipetted into a centrifuge tube. Subsequently, the dispenser was filled with the appropriate volume of […] Tacrolimus Whole Blood Precipitation Reagent, followed by the removal of air bubbles from the dispenser. 200 μL of […] Tacrolimus Whole Blood Precipitation Reagent was added to the contents of the first centrifuge tube. Each individual tube was capped, mixed immediately after adding the reagent and centrifuged for 5–10 s. The tubes were then centrifuged again for 4 min. Each tube was uncapped and the supernatant was decanted (poured off) into a Graft Pre-Treatment Tube. They were then vortexed for 5–10 s and assayed for the concentrations of tacrolimus.
Calibration was performed in duplicate samples by testing Calibrators A, B, C, D, E and F. Control samples were prepared by mixing 150 μL of the patient sample and 150 μL of […] Tacrolimus Calibrator A. One sample for each control level was tested once every 24 h as a quality control test. […]

[2] = no reference given; cited from earlier work
[3] = parameters: method as in Summary of Product Characteristics; settings: ref Summary of Product Characteristics; cited from earlier work
[4] = parameters: method as in Susal and Dohler, 2019; settings: ref Susal and Dohler, 2019, cited from earlier work
[5] = 2012, cited from earlier work
[6] = parameters: method as in Takahashi et al., 2007; settings: ref Takahashi et al., 2007, cited from earlier work
[7] = 0.0376 mg/kg, group II, no FA (day 1)
[8] = 0.0611 mg/kg, group I, no OM (day 1)
[9] = 20 mg, group II, FA 20 mg (day 2)
[10] = with omeprazole 20 mg (day 2) vs no omeprazole (day 1)

Effect of single 20 mg co-administration on tacrolimus pharmacokinetic parameters [1]: no significant changes
SMILES: NC(N)=Nc1nc(CSCCC(N)=NS(N)(=O)=O)cs1 [famotidine]

SMILES: COc1ccc2[nH]c([S+]([O-])Cc3ncc(C)c(OC)c3C)nc2c1 (stereo not shown) [omeprazole]
bound to plasma proteins [2]: approximately 95% | elimination half-life in the body [3]: shorter than an hour | Effect of single 20 mg co-administration on tacrolimus pharmacokinetic parameters [1]: significantly increases blood exposure of tacrolimus

the mean C0/D ratio ([1]; Group I (omeprazole group), mean ± SD): 2.02 ± 1.14 ng/mL*1/mg | the mean C0/D ratio ([1]; Group II (famotidine group), mean ± SD): 2.49 ± 0.76 ng/mL*1/mg | C2 ([1]; group I, 2 h, OM 20 mg (day 2)): 11.90 ± 5.03 ng/mL | AUC 0–6 normalized by the dose ([1]; group I, OM 20 mg (day 2)): 1308.01 ± 595.19 (ng × h/mL)/(mg/kg) | AUC 2–6 normalized by the dose ([1]; group I, OM 20 mg (day 2)): 939.13 ± 453.89 (ng × h/mL)/(mg/kg) | AUC0-6 ([1]; group I, no OM (day 1)): 54.23 ± 10.48 ng·h/mL | AUC 2–6 normalized by the dose ([1]; group I, no OM (day 1)): 832.98 ± 415.81 (ng × h/mL)/(mg/kg) | AUC 0–6 normalized by the dose ([1]; group II, FA 20 mg (day 2)): 1784.71 ± 447.89 (ng × h/mL)/(mg/kg) | AUC2-6 ([1]; group II, FA 20 mg (day 2)): 44.05 ± 11.28 ng·h/mL | AUC 2–6 normalized by the dose ([1]; group II, FA 20 mg (day 2)): 1268.57 ± 329.31 (ng × h/mL)/(mg/kg) | C0h, Q1 ([1]; group II, FA 20 mg (day 2)): Q1: 5.60 ng/mL | C0h, Q2 ([1]; group II, FA 20 mg (day 2)): Q2: 7.30 ng/mL | C0h, Q3 ([1]; group II, FA 20 mg (day 2)): Q3: 7.95 ng/mL | AUC 0–6 normalized by the dose ([1]; group II, no FA (day 1)): 1677.84 ± 358.32 (ng × h/mL)/(mg/kg) | AUC 2–6 normalized by the dose ([1]; group II, no FA (day 1)): 1196.79 ± 279.50 (ng × h/mL)/(mg/kg) | C0h, Q1 ([1]; group II, no FA (day 1)): Q1: 5.25 ng/mL | C0h, Q2 ([1]; group II, no FA (day 1)): Q2: 6.50 ng/mL | C0h, Q3 ([1]; group II, no FA (day 1)): Q3: 8.80 ng/mL | concentration at 2 h ([1]; 0.0376 mg/kg, group II, 2 h, no FA (day 1)): 10.3 ± 4.64 ng/mL | concentration at 6 h [1, 7]: 10.8 ± 3.16 ng/mL | AUC(0-t) [1, 7]: 59.1 ± 16.6 ng·h/mL | concentration at 2 h ([1]; 0.0611 mg/kg, group I, 2 h, no OM (day 1)): 9.4 ± 2.5 ng/mL | concentration at 6 h [1, 8]: 9.94 ± 3.03 ng/mL | Cmax ([1]; 0.0611 mg/kg, group I, no OM (day 1), mean ± SD): 11.2 ± 2.34 ng/mL | AUC [1, 8]: 38.7 ± 7.7 ng·h/mL | Cmax ([1]; 20 mg, group I, OM 20 mg (day 2), mean ± SD): 13.1 ± 4.3 ng/mL | AUC(0-t) ([1]; 20 mg, group I, OM 20 mg (day 2)): 63.1 ± 19.5 ng·h/mL | Cmax [1, 9]: 13.1 ± 4.17 ng/mL | AUC(0-t) [1, 9]: 62.1 ± 15.9 ng·h/mL | concentration at 2 h ([1]; group I, 2 h, OM 20 mg (day 2)): 11.9 ± 1.59 ng/mL | concentration at 2 h ([1]; group I, 2 h, no OM (day 1)): 9.4 ± 0.79 ng/mL | concentration at 6 h ([1]; group I, OM 20 mg (day 2)): 10.3 ± 1.99 ng/mL | concentration at 2 h ([1]; group II, 2 h, FA 20 mg (day 2)): 11 ± 4.27 ng/mL | concentration at 6 h ([1]; group II, FA 20 mg (day 2)): 11 ± 3.53 ng/mL | AUC ([1]; group I, OM 20 mg (day 2)): 44.3 ± 11.5 ng·h/mL | Cmax ([1]; group II, no FA (day 1)): 12.7 ± 4.39 ng/mL | AUC ([1]; group II, no FA (day 1)): 42 ± 11.5 ng·h/mL | Increase of tacrolimus AUC0-6 [1, 10]: 16.30% | Increase of tacrolimus AUC0-6 normalized by the dose [1, 10]: 12.88% | Increase of tacrolimus AUC2-6 [1, 10]: 14.58% | Increase of tacrolimus AUC2-6 normalized by the dose [1, 10]: 12.74% | Increase of tacrolimus C2h [1, 10]: 26.60%
SMILES: C=CC[C@@H]1/C=C(\C)C[C@H](C)C[C@H](OC)[C@H]2O[C@@](O)(C(=O)C(=O)N3CCCC[C@H]3C(=O)O[C@H](/C(C)=C/[C@@H]3CC[C@@H](O)[C@H](OC)C3)[C@H](C)[C@@H](O)CC1=O)[C@H](C)C[C@@H]2OC [tacrolimus]
6-year survival of the kidney graft ([4]; tacrolimus C0 4.0–4.9 ng/mL): 86.5% | 6-year survival of the kidney graft ([4]; tacrolimus C0 5.0–6.9 ng/mL in the first 3 years after transplantation): over 88% | 6-year survival of the kidney graft ([4]; tacrolimus C0 7.0–8.9 ng/mL in the first 3 years after transplantation): over 88% | 6-year survival of the kidney graft ([4]; tacrolimus C0 <4 ng/mL): 82.6% | 6-year survival of the kidney graft ([4]; tacrolimus C0 ≥9 ng/mL): 87.5% | increase in tacrolimus concentrations after omeprazole administration ([5]; kidney transplant patient, ref Zhao WFM. et al.): more than four-fold increase | tacrolimus blood trough level (C0) ([5]; postoperative day 3, 9 mg twice daily, before omeprazole, ref Zhao W. et al.): 19.6 ng/mL | tacrolimus blood trough level (C0) ([5]; postoperative day 4, 9 mg twice daily, before omeprazole, ref Zhao W. et al.): 29.2 ng/mL | serum creatinine (acute nephrotoxicity) ([5]; postoperative day 6, at tacrolimus C0 92 ng/mL with omeprazole, ref Zhao W. et al.): 160 µM | tacrolimus blood trough level (C0) ([5]; postoperative day 6, dose reduced to 7 mg, omeprazole given on day 5, ref Zhao W. et al.): 92 ng/mL | bound to plasma proteins [2]: approximately 99% | blood concentrations of tacrolimus ([6]; after switching omeprazole to oral rabeprazole 10 mg/day (day 21)): approximately 10 ng/mL | tacrolimus trough levels ([6]; on omeprazole, despite dose reductions from 17 to 9 mg/day): above 15 ng/mL | trough concentration of tacrolimus ([6]; post-transplant day 17, daily oral dose 17 mg, on ranitidine): 12.5 ng/mL | tacrolimus trough levels ([6]; post-transplant day 19, after start of intravenous omeprazole on day 18): 30.0 ng/mL
